Source: patent publication US20180117042A1, “METHODS FOR TREATING RESPIRATORY SYNCYTIAL VIRUS INFECTION” (ALIOS BIOPHARMA, INC., priority 2016, published 2018)

Columns and labels:
[1] = half-life of the triphosphate compound (B); conditions: triphosphate formed inside the cell
[2] = tested on: RSV; conditions: infants and young children with severe RSV LRTI; cited from earlier work
[3] = SAD/MAD study in pediatric patients hospitalized with RSV infection: plasma PK with PK modeling; assay type: in vivo, human
Protocol: (§1) One hundred fifty eight otherwise healthy pediatric patients hospitalized with RSV infection were recruited in a randomized, double-blind, placebo-controlled, SAD (single ascending dose) and MAD (multiple ascending dose) study. The patients were randomized into nine SAD, MAD regimens. Subjects not given the placebo were administered lumicitabine or compound (A), a prodrug of the nucleoside analog AL-8112 (otherwise referenced herein as compound (C), the triphosphate of which is a potent inhibitor of the RSV polymerase. The cohort size and dose for the first SAD cohort was prespecified. The makeup of all other cohorts was determined by an Independent Data Monitoring Committee (IDMC) that regularly reviewed data. FIG. 2 provides the single and multiple doses used in the study as well as approximate numbers of subjects dosed. Safety and PK data were collected for 7 (SAD) and 28 (MAD) days post randomization. PK was analyzed using non-linear mixed effect modeling.
Part 1 (single ascending dose): Patients received a single dose of 1 of 4 ascending doses of compound (A), (1.37 mg/kg, 4.1 mg/kg, 12 mg/kg and 25 mg/kg) or placebo. Patients received compound (A) for a 7-day consecutive period.
Part 2 (multiple ascending dosage): Patients received a loading dosage followed by nine maintenance dosages, or placebo. Patients received compound (A) for a 5-day consecutive period. The maintenance dosages were administered twice daily. In the twice daily dosage regimen, the first maintenance dosage was given 8-18 hours after the loading dosage (dosage 1).
A PK model was developed integrating adult and pediatric data to aid calculation of PK parameters and project efficacious doses. For pediatric dose and exposure projections three age cohorts were used: 1-<2 months, 2-<6 month and 6-<12 months. Apparent clearance increased with dose, creatinine clearance and body weight (using allometric principles). Maturation functions were applied for age dependent changes in Carboxylesterase 1 abundance on bioavailability and kidney function on renal elimination. […]

[4] = tested on: RSV-A Memphis 37b challenge virus; test: human RSV challenge model in healthy adults, viral load in nasal washes; assay type: in vivo
Protocol: Healthy adults received one of the following dosing regimens or placebo over 5 days using the human RSV challenge model.
Patients were given an intranasal inoculation of RSV-A Memphis 37b challenge virus. Administration of compound (A), or a pharmaceutically acceptable salt thereof, began approximately 12 hours after confirmation of RSV infection as determined by the presence of RSV RNA in nasopharyngeal washes. The test compound was administered as an oral-liquid suspension, wherein the drug vehicle was methyl cellulose and sterile water. The placebo was the drug vehicle without the test compound. Second dosages were started 12 hours after administration of the first dosage, and the remaining second dosages were provided in approximate 12 hour intervals. Nasal washes were collected twice daily approximately 36 to 48 hours after RSV inoculation until Day 12. Viral load was detected and quantified from the aliquots of the nasal wash samples using tissue infectivity plaque assays and PCR. (See DeVincenzo, J. P., et al., Am. J. Respir. Crit. Care. Med. (2010) 182(10):1305-1314) Patients returned for two follow-up visits on Day 16 (±2 days) and Day 28 (±2 days) post-challenge inoculation.

[5] = SAD/MAD study in pediatric patients hospitalized with RSV infection: safety; assay type: in vivo, human; conditions: infants hospitalized with RSV, interim blinded results
Protocol: as §1, with “modeling. Part 1 (single ascending dose): Patients received a single dose of 1 of 4 ascending doses of compound (A), (1.37 mg/kg, 4.1 mg/kg, 12 mg/kg and 25 mg/kg) or placebo. Patients received compound (A) for a 7-day consecutive period. Part 2 (multiple ascending dosage): Patients received a loading dosage followed by nine maintenance dosages, or placebo. Patients received compound (A) for a 5-day consecutive period. […]” for “modeling.”

## Nc1ccn([C@@H]2O[C@](CCl)(COP(=O)(O)OP(=O)(O)OP(=O)(O)O)[C@@H](O)[C@H]2F)c(=O)n1 [Compound (B)]
[1]
  half-life: ~17.6 h

## NC(=O)c1ncn([C@@H]2O[C@H](CO)[C@@H](O)[C@H]2O)n1 [aerosolized ribavirin, ribavirin]
[2]
  clinical benefit of treatment: failed to impart any clinically significant benefits

## Nc1ccn([C@@H]2O[C@@](CO)(CCl)[C@@H](O)[C@H]2F)c(=O)n1 [compound (C)]
[3]; human, plasma, doses of 40/20 mg/kg and 60/40 mg/kg compound (A), actual concentrations with PK modeling (FIG. 3), read-out: plasma AUC0-24
  AUC(0-t): 8000 to 20000 ng·h/mL
[3]; multiple dosing
  accumulation: no accumulation
[3]; oral
  plasma exposures with increasing ALS-8176 doses (dose proportionality): less than dose proportional

## CC(C)C(=O)OC[C@@]1(CCl)O[C@@H](n2ccc(N)nc2=O)[C@H](F)[C@@H]1OC(=O)C(C)C [compound (A), Lumicitabine]
[4]; all regimens (750/150 mg, 750/500 mg, 375 mg), oral, 5 days, FIG. 1
  RSV viral load compared to the placebo: marked reduction
[4]; at Day 12, all treated patients
  RSV RNA: undetectable
[4]; at Day 16 follow-up
  RSV RNA: undetectable
[4]; at Day 28 follow-up
  RSV RNA: undetectable
[4]; healthy adults, 5 days dosing
  laboratory abnormalities: no clinically significant laboratory abnormalities
  treatment discontinuation during the study: no patient discontinued treatment
[4]; patients who received 750 mg on Day 1, within the first 24 hours
  reduction of plaque forming units equivalents (PFUe/mL): multi-log reduction
[5]; multiple doses up to 60/40 mg/kg
  tolerability: well tolerated
[5]; single doses up to 25 mg/kg
  tolerability: well tolerated
